Values of other authors, collected in patent publication US20150050333A1, “PHARMACEUTICAL COMPOSITION COMPRISING OLMESARTAN MEDOXOMIL AND ROSUVASTATIN OR ITS SALT” (priority 2012, published 2015).

Test system: CYP450

## CCCc1nc(C(C)(C)O)c(C(=O)OCc2oc(=O)oc2C)n1Cc1ccc(-c2ccccc2-c2nnn[nH]2)cc1 [Olmesartan medoxomil]
After in vivo absorption
  Metabolism of olmesartan medoxomil by CYP450: not metabolized by CYP450

## CC(C)c1nc(N(C)S(C)(=O)=O)nc(-c2ccc(F)cc2)c1/C=C/[C@@H](O)C[C@@H](O)CC(=O)O [rosuvastatin]
Metabolized mainly by CYP 2C9 and CYP 2C19
  Portion of rosuvastatin that is metabolized: 10%
